Test results reported in patent US20070191414A1, “Novel isoamido-substituted hydroxy-6-phenylphenanthridines” (Altana Pharma AG, priority 2004, published 2007).

Molecular target: T1, PDE4B2 (Homo sapiens, UniProt Q07343)
T1 construct: made in house; host or cells: SF21 insect cells (baculovirus; virus prepared in SF9 cells)
Test: Inhibition of PDE4B2 activity, modified [3H]cAMP SPA (scintillation proximity assay)
Type: biochemical
Details: recombinant PDE4B2 expressed in SF21 insect cells; 0.5 μM cAMP; 15 min at 37° C.; read-out: Inhibition of the PDE4 activity, −log IC50(mol/l) (converted)
Protocol: The PDE4B2 (GB no. M97515) was a gift of Prof. M. Conti (Stanford University, USA). It was amplified from the original plasmid (pCMV5) via PCR with primers. Rb9 (5′- […] -3′) and Rb 10 (5′- […] -3′) and cloned into the pCR-Bac vector (Invitrogen, Groningen, NL).
The recombinant baculovirus was prepared by means of homologous recombination in SF9 insect cells. The expression plasmid was cotransfected with Bac-N-Blue (Invitrogen, Groningen, NL) or Baculo-Gold DNA (Pharmingen, Hamburg) using a standard protocol (Pharmingen, Hamburg). Wt virus-free recombinant virus supernatant was selected using plaque assay methods. After that, high-titre virus supernatant was prepared by amplifying 3 times. PDE was expressed in SF21 cells by infecting 2×10^6 cells/ml with an MOI (multiplicity of infection) between 1 and 10 in serum-free SF900 medium (Life Technologies, Paisley, UK). […]
The SF21 insect cells were resuspended, at a concentration of approx. 10^7 cells/ml, in ice-cold (4° C.) homogenization buffer (20 mM Tris, pH 8.2, containing the following additions: 140 mM NaCl, 3.8 mM KCl, 1 mM EGTA, 1 mM MgCl2, 10 mM β-mercaptoethanol, 2 mM benzamidine, 0.4 mM Pefablock, 10 μM leupeptin, 10 μM pepstatin A, 5 μM trypsin inhibitor) and disrupted by ultrasonication. […] The protein content was determined by the Bradford method (BioRad, Munich) using BSA as the standard. […]

T1 sequence (Q07343 1-564 isoform Q07343-2): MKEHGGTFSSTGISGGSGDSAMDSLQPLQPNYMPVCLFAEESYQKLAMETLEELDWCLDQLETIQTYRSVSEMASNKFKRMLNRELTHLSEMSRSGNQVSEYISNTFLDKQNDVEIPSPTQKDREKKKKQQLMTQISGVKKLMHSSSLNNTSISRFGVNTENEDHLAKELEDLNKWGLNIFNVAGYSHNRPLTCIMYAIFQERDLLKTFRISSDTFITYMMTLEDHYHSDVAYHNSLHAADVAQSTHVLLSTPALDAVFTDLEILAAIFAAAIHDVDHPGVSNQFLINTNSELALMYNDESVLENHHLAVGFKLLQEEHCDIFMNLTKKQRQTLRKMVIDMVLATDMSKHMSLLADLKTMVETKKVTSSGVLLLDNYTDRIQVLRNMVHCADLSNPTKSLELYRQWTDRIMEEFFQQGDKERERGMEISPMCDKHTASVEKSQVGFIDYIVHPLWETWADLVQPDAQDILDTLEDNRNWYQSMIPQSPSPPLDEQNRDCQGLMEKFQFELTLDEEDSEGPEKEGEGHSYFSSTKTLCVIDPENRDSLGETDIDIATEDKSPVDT

- IC50: 1.48 nM
SMILES: CCOc1cc2c(cc1OC)C(c1cccc(NC(=O)CCNC(N)=O)c1)=N[C@@H]1CC[C@@H](O)C[C@H]21 (racemic) [Compound 19, N-[3-((2RS,4aRS,10bRS)-9-Ethoxy-2-hydroxy-8-methoxy-1,2,3,4,4a,10b-hexahydro-phenanthridin-6-yl)-phenyl]-3-ureido-propionamide]
